Assay results taken from ChEMBL document CHEMBL1201862, “PubChem BioAssay data set” (2004).
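Protocol summary: plate cells (96-well), add compound at 5 concentrations, incubate 48 h, interpolate endpoints linearly. GI50: concentration for 50% inhibition of growth.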 Active and inactive are the calls of the source. No stated cut-off is given here; in the data, active = GI50 up to about 1.1 µM and inactive = higher.

Tests used:
Test in all cases: DTP human tumour cell line panel, 48 h
[1] = system: NCI-H226
[2] = system: HCC 2998
[3] = system: MOLT-4
[4] = system: SW-620
[5] = system: SF-295
[6] = system: COLO 205
[7] = system: RPMI-8226
[8] = system: LOX IMVI
[9] = system: K562
[10] = system: A549
[11] = system: SNB-19
[12] = system: IGROV-1
[13] = system: SR
[14] = system: KM12
[15] = system: NCI-H522
[16] = system: SN12C
[17] = system: SK-MEL-28
[18] = system: UO-31
[19] = system: NCI-H460
[20] = system: HCT-116

Row | SMILES | GI50 [1] | GI50 [2] | GI50 [3] | GI50 [4] | GI50 [5] | GI50 [6] | GI50 [7] | GI50 [8] | GI50 [9] | GI50 [10] | GI50 [11] | GI50 [12] | GI50 [13] | GI50 [14] | GI50 [15] | GI50 [16] | GI50 [17] | GI50 [18] | GI50 [19] | GI50 [20]
1 | O=C(CSc1nc2ccc(I)cc2c(=O)n1Cc1ccccc1)NNC(=O)c1ccccc1 | 3.78 µM (inactive) | 33.8 µM (inactive) | 11.4 µM (inactive) | 36.1 µM (inactive) | 11.4 µM (inactive) | 18.9 µM (inactive) | 3.52 µM (inactive) | 22.5 µM (inactive) | 2.2 µM (inactive) | 11.9 µM (inactive) | 21.3 µM (inactive) | 9.27 µM (inactive) | 11.5 µM (inactive) | 17.5 µM (inactive) | 6.4 µM (inactive) | 17.1 µM (inactive) | 15.4 µM (inactive) | 1.15 µM (inactive) | 17.3 µM (inactive) | 19.7 µM (inactive)
2 | COc1cc2c(c(OC)c1OC)-c1ccc(OC)c(=O)cc1C(NC(=O)CCCCCNc1ccc(N=[N+]=[N-])cc1[N+](=O)[O-])CC2 (stereo not given) | < 0.01 µM (active) | < 0.01 µM (active) | < 0.01 µM (active) | < 0.01 µM (active) | < 0.0118 µM (active) | < 0.01 µM (active) | < 0.01 µM (active) | < 0.01 µM (active) | < 0.01 µM (active) | < 0.01 µM (active) | < 0.01 µM (active) | < 0.01 µM (active) | < 0.01 µM (active) | < 0.01 µM (active) | < 0.01 µM (active) | < 0.01 µM (active) | < 0.01 µM (active) | 1.47 µM (inactive) | < 0.01 µM (active) | < 0.01 µM (active)
3 | COc1cc2c(Cc3cc(OCc4ccccc4)ccc3N)nccc2c(OC)c1OC | > 10 µM (inactive) | > 10 µM (inactive) | > 10 µM (inactive) | > 10 µM (inactive) | > 10 µM (inactive) | > 10 µM (inactive) | > 10 µM (inactive) | > 10 µM (inactive) | > 10 µM (inactive) | > 10 µM (inactive) | > 10 µM (inactive) | > 10 µM (inactive) | > 10 µM (inactive) | > 10 µM (inactive) | > 10 µM (inactive) | > 10 µM (inactive) | > 10 µM (inactive) | > 10 µM (inactive) | > 10 µM (inactive) | > 10 µM (inactive)
4 | COc1ccc([S+]([O-])Cc2cc(OC)c(OC)c(OC)c2)cc1 (stereo not given) | > 100 µM (inactive) | 54.3 µM (inactive) | 27 µM (inactive) | 30.3 µM (inactive) | 47.3 µM (inactive) | 52.8 µM (inactive) | 42.2 µM (inactive) | 91.6 µM (inactive) | 14.7 µM (inactive) | 49.1 µM (inactive) | 69.7 µM (inactive) | > 100 µM (inactive) | 37.8 µM (inactive) | 40.8 µM (inactive) | 51.3 µM (inactive) | 54.8 µM (inactive) | 95.3 µM (inactive) | > 100 µM (inactive) | 33.2 µM (inactive) | 40.4 µM (inactive)
5 | O=C(O)CCCc1ccc(N(CCCl)CCCl)cc1 [CHLORAMBUCIL] | 95.7 µM (inactive) | 103 µM (inactive) | 5.78 µM (inactive) | 87.9 µM (inactive) | 39.2 µM (inactive) | 115 µM (inactive) | 76 µM (inactive) | 40.3 µM (inactive) | 107 µM (inactive) | 61.7 µM (inactive) | 96.2 µM (inactive) | 115 µM (inactive) | 5.98 µM (inactive) | 143 µM (inactive) | 28.4 µM (inactive) | 35.5 µM (inactive) | 106 µM (inactive) | 70.1 µM (inactive) | 14.7 µM (inactive) | 106 µM (inactive)
